Like-named read-outs stand apart in the source and are kept apart here.
Experiments:
[1] = Metabolic stability in human liver microsomes (in vitro half-life); type: in vitro ADME
Experimental: Human liver microsomes (20 mg/mL) are obtained from Xenotech, LLC (Lenexa, Kans.). β-nicotinamide adenine dinucleotide phosphate, reduced form (NADPH), magnesium chloride (MgCl2), and dimethyl sulfoxide (DMSO) are purchased from Sigma-Aldrich. 7.5 mM stock solutions of test compounds were prepared in DMSO. The 7.5 mM stock solutions were diluted to 50 μM in acetonitrile (ACN). The 20 mg/mL human liver microsomes were diluted to 0.625 mg/mL in 0.1 M potassium phosphate buffer, pH 7.4, containing 3 mM MgCl2. The diluted microsomes were added to wells of a 96-well deep-well polypropylene plate in triplicate. A 10 μL aliquot of the 50 μM test compound was added to the microsomes and the mixture was pre-warmed for 10 minutes. Reactions were initiated by addition of pre-warmed NADPH solution. The final reaction volume was 0.5 mL and contained 0.5 mg/mL human liver microsomes, 1.0 μM test compound, and 2 mM NADPH in 0.1 M potassium phosphate buffer, pH 7.4, and 3 mM MgCl2. The reaction mixtures were incubated at 37° C., and 50 μL aliquots were removed at 0, 5, 10, 20, and 30 minutes and added to shallow-well 96-well plates which contained 50 μL of ice-cold ACN with internal standard to stop the reactions. The plates were stored at 4° C. for 20 minutes after which 100 μL of water was added to the wells of the plate before centrifugation to pellet precipitated proteins. Supernatants were transferred to another 96-well plate and analyzed for amounts of parent remaining by LC-MS/MS using an Applied Bio-systems API 4000 mass spectrometer. […] Testing was done in triplicate.

schistosoma = details: enantiomer comparison, Meyer et al. 2009; cited from earlier work
[2] = FDA label for BILTRICIDE; cited from earlier work
[3] = pH 7.4, Table 2, 0.5 mg/mL HLM, 1.0 μM test compound, 2 mM NADPH, 37° C., read-out: t1/2 Run No. 5
[4] = pH 7.4, Table 2, 0.5 mg/mL HLM, 1.0 μM test compound, 2 mM NADPH, 37° C., read-out: t1/2 Run No. 6
[5] = pH 7.4, Table 2, 0.5 mg/mL HLM, 1.0 μM test compound, 2 mM NADPH, 37° C., read-out: t1/2 Run No. 7
[6] = pH 7.4, Table 2, 0.5 mg/mL HLM, 1.0 μM test compound, 2 mM NADPH, 37° C., read-out: t1/2 Run No. 8
[7] = pH 7.4, Table 2, average of runs 5-8, read-out: t1/2 AVE ± SD
[8] = pH 7.4, Table 1, 0.5 mg/mL HLM, 1.0 μM test compound, 2 mM NADPH, 37° C., read-out: t1/2 Run No. 1
[9] = pH 7.4, Table 1, 0.5 mg/mL HLM, 1.0 μM test compound, 2 mM NADPH, 37° C., read-out: t1/2 Run No. 2
[10] = pH 7.4, Table 1, 0.5 mg/mL HLM, 1.0 μM test compound, 2 mM NADPH, 37° C., read-out: t1/2 Run No. 3
[11] = pH 7.4, Table 1, 0.5 mg/mL HLM, 1.0 μM test compound, 2 mM NADPH, 37° C., read-out: t1/2 Run No. 4
[12] = pH 7.4, Table 1, average of runs 1-4, read-out: t1/2 AVE ± SD
[13] = pH 7.4, Table 3, 0.5 mg/mL HLM, 1.0 μM test compound, 2 mM NADPH, 37° C., read-out: Half-life (t½) Run No. 9
[14] = pH 7.4, Table 3, 0.5 mg/mL HLM, 1.0 μM test compound, 2 mM NADPH, 37° C., read-out: Half-life (t½) Run No. 10
[15] = pH 7.4, Table 3, 0.5 mg/mL HLM, 1.0 μM test compound, 2 mM NADPH, 37° C., read-out: Half-life (t½) Run No. 11
[16] = pH 7.4, Table 3, 0.5 mg/mL HLM, 1.0 μM test compound, 2 mM NADPH, 37° C., read-out: Half-life (t½) Run No. 12
[17] = pH 7.4, Table 3, average of runs 9-12, read-out: Half-life (t½) AVE ± SD

## [2H]C1([2H])CC(C(=O)N2CC(=O)N3CCc4ccccc4C3C2)CC([2H])([2H])C1([2H])[2H] (centres unmarked) [Compound 109, 2-(Cyclohexane-3,3,4,4,5,5,-d6-carbonyl)-2,3,6,7-tetrahydro-1H-pyrazino[2,1-a]isoquinolin-4(11bH)-one]
[1]; [3]
  half-life at 1 μM: 55.7 min
[1]; [4]
  half-life at 1 μM: 53.5 min
[1]; [5]
  half-life at 1 μM: 46.4 min
[1]; [6]
  half-life at 1 μM: 51.2 min
[1]; [7]
  half-life at 1 μM: 52.2 ± 4.6 min

## [2H]C1([2H])CCC(C(=O)N2CC(=O)N3CCc4ccccc4C3C2)CC1 (centres unmarked) [Compound 101, 2-(Cyclohexane-4,4-d2-carbonyl)-2,3,6,7-tetrahydro-1H-pyrazino[2,1-a]isoquinolin-4(11bH)-one]
[1]; [8]
  half-life at 1 μM: 47.4 min
[1]; [9]
  half-life at 1 μM: 43.6 min
[1]; [10]
  half-life at 1 μM: 43.1 min
[1]; [11]
  half-life at 1 μM: 52.7 min
[1]; [12]
  half-life at 1 μM: 46.7 ± 4.4 min
[1]; [3]
  half-life at 1 μM: 56.7 min
[1]; [4]
  half-life at 1 μM: 53.9 min
[1]; [6]
  half-life at 1 μM: 60.1 min
[1]; [7]
  half-life at 1 μM: 52.2 ± 9.7 min

## [2H]C1([2H])C([2H])([2H])C([2H])([2H])C([2H])(C(=O)N2CC(=O)N3CCc4ccccc4[C@@H]3C2)C([2H])([2H])C1([2H])[2H] [102(a), (R)-2-(Cyclohexane-d11-carbonyl)-2,3,6,7-tetrahydro-1H-pyrazino[2,1-a]isoquinolin-4(11bH)-one]
[1]; [13]
  half-life at 1 μM: 57.4 min
[1]; [14]
  half-life at 1 μM: 53.6 min
[1]; [15]
  half-life at 1 μM: 50.1 min
[1]; [16]
  half-life at 1 μM: 46 min
[1]; [17]
  half-life at 1 μM: 51.8 ± 4.9 min

## [2H]C1([2H])C(C(=O)N2CC(=O)N3CCc4ccccc4C3C2)C([2H])([2H])C([2H])([2H])C([2H])([2H])C1([2H])[2H] (centres unmarked) [Compound 103, 2-(Cyclohexane-2,2,3,3,4,4,5,5,6,6-d10-carbonyl)-2,3,6,7-tetrahydro-1H-pyrazino[2,1-a]isoquinolin-4(11bH)-one]
[1]; [3]
  half-life at 1 μM: 65.1 min
[1]; [4]
  half-life at 1 μM: 51.6 min
[1]; [5]
  half-life at 1 μM: 60.6 min
[1]; [6]
  half-life at 1 μM: 69.3 min
[1]; [7]
  half-life at 1 μM: 61.7 ± 7.6 min

## [2H]C1([2H])CCC(C(=O)N2CC(=O)N3CCc4ccccc4[C@@H]3C2)CC1 [101(a), (R)-2-(4,4-d2-Cyclohexanecarbonyl)-2,3,6,7-tetrahydro-1H-pyrazino[2,1-a]isoquinolin-4(11bH)-one]
[1]; [13]
  half-life at 1 μM: 48.9 min
[1]; [14]
  half-life at 1 μM: 46.7 min
[1]; [15]
  half-life at 1 μM: 56.3 min
[1]; [16]
  half-life at 1 μM: 45.8 min
[1]; [17]
  half-life at 1 μM: 49.4 ± 4.8 min

## [2H]C1([2H])C(C(=O)N2CC(=O)N3CCc4ccccc4[C@@H]3C2)C([2H])([2H])C([2H])([2H])C([2H])([2H])C1([2H])[2H] [103(a), (R)-2-(2,2,3,3,4,4,5,5,6,6-d10-Cyclohexanecarbonyl)-2,3,6,7-tetrahydro-1H-pyrazino[2,1-a]isoquinolin-4(11bH)-one]
[1]; [13]
  half-life at 1 μM: 52.7 min
[1]; [15]
  half-life at 1 μM: 50 min
[1]; [16]
  half-life at 1 μM: 55.5 min
[1]; [17]
  half-life at 1 μM: 50 ± 5.9 min

## [2H]C1([2H])C([2H])([2H])C([2H])([2H])C([2H])(C(=O)N2CC(=O)N3CCc4ccccc4C3C2)C([2H])([2H])C1([2H])[2H] (centres unmarked) [Compound 102, 2-(Cyclohexane-d11-carbonyl)-2,3,6,7-tetrahydro-1H-pyrazino[2,1-a]isoquinolin-4(11bH)-one]
[1]; [8]
  half-life at 1 μM: 56.4 min
[1]; [9]
  half-life at 1 μM: 55.4 min
[1]; [10]
  half-life at 1 μM: 44.8 min
[1]; [11]
  half-life at 1 μM: 66.2 min
[1]; [12]
  half-life at 1 μM: 55.7 ± 8.7 min
[1]; [3]
  half-life at 1 μM: 54.8 min
[1]; [4]
  half-life at 1 μM: 50.6 min
[1]; [5]
  half-life at 1 μM: 44.9 min
[1]; [6]
  half-life at 1 μM: 52.4 min
[1]; [7]
  half-life at 1 μM: 50.7 ± 4.2 min

## O=C(C1CCCCC1)N1CC(=O)N2CCc3ccccc3[C@@H]2C1 [(R) Praziquantel]
schistosoma
  schistosomicidal activity: has schistosomicidal activity

## [2H]C1([2H])CC(C(=O)N2CC(=O)N3CCc4ccccc4[C@@H]3C2)CC([2H])([2H])C1([2H])[2H] [109(a), (R)-2-(3,3,4,4,5,5-d6-Cyclohexanecarbonyl)-2,3,6,7-tetrahydro-1H-pyrazino[2,1-a]isoquinolin-4(11bH)-one]
[1]; [13]
  half-life at 1 μM: 39.5 min
[1]; [14]
  half-life at 1 μM: 38.7 min
[1]; [15]
  half-life at 1 μM: 43.2 min
[1]; [16]
  half-life at 1 μM: 55.4 min
[1]; [17]
  half-life at 1 μM: 44.2 ± 7.7 min

## O=C(C1CCCCC1)N1CC(=O)N2CCc3ccccc3C2C1 (centres unmarked) [Praziquantel, 2-(cyclohexylcarbonyl)-1,2,3,6,7,11b-hexahydro-4H-pyrazino[2,1-a]isoquinolin-4-one, reference compound]
[1]; [11]
  half-life at 1 μM: 44.7 min
[1]; [12]
  half-life at 1 μM: 38.9 ± 3.9 min
[1]; [3]
  half-life at 1 μM: 41.2 min
[1]; [4]
  half-life at 1 μM: 43.8 min
[1]; [5]
  half-life at 1 μM: 30.6 min
[1]; [6]
  half-life at 1 μM: 36.9 min
[1]; [13]
  half-life at 1 μM: 29.5 min
[1]; [14]
  half-life at 1 μM: 31.5 min
[1]; [15]
  half-life at 1 μM: 35.1 min
[1]; [16]
  half-life at 1 μM: 30.5 min
[1]; [17]
  half-life at 1 μM: 31.7 ± 2.5 min
[2]
  portion of a dose excreted in the kidneys: Approximately 80%
  portion of the renally excreted dose in the form of metabolites: > 99%

— US9944635B2, “Deuterated pyrazino[2,1-a]isoquinoline compounds and methods of treatment using the same” (Concert Pharmaceuticals, Inc., priority 2011, dated 2018)
